This note sets out measurements from patent EP3755703B1, “N-(PHENYL)-2-(PHENYL)PYRIMIDINE-4-CARBOXAMIDE DERIVATIVES AND RELATED COMPOUNDS AS HPK1 INHIBITORS FOR TREATING CANCER” (Incyte Corporation, priority 2018, dated 2019).

This assay deals with T1, HPK1 (Homo sapiens, UniProt Q92918).
T1 construct: purchased SignalChem M23-11G
T1 sequence (Q92918 1-346 limits assumed): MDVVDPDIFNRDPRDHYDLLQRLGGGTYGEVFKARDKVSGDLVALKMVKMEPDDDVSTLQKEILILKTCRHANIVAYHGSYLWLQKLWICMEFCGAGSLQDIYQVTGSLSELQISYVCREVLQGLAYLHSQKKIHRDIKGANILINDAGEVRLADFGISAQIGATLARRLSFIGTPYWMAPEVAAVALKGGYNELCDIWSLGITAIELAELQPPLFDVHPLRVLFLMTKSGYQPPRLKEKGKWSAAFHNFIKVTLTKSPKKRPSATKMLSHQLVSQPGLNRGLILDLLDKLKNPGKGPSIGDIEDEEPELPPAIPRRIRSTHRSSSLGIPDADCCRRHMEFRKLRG
The experiment in a line: HPK1 Kinase Binding Assay. The following applies: LanthaScreen tracer 222, one hour incubation at 25 °C. On the procedure:
A stock solution of 1 mM test compound was prepared in DMSO. The compound plate was prepared by 3-fold and 11-point serial dilutions. 0.1 µL of the compound in DMSO was transferred from the compound plate to the white 384 well polystyrene plates. The assay buffer contained 50 mM HEPES, pH 7.5, 0.01% Tween-20, 5 mM MgCl2, 0.01% BSA, and 5 mM DTT. 5 µL of 4 nM active HPK1 (SignalChem M23-11G) prepared in the buffer was added to the plate. The enzyme concentration given was based on the given stock concentration reported by the vender. […] After one hour incubation at 25 °C, the plates were read on a PHERAstar FS plate reader (BMG Labtech). Ki values were determined.
In general terms: Time-resolved FRET reads energy transfer from a long-lived donor to a nearby acceptor.

The Ki is the equilibrium dissociation constant of an inhibitor or competing ligand from its target. Read a low Ki as tighter binding. For the molecule `COC[C@@H]1CCN1c1ccc(NC(=O)c2ccnc(-c3c(F)cccc3OC)n2)c(N2C[C@@H]3C[C@H]2CN3)c1` [Example 39, N-(2-((1S,4S)-2,5-Diazabicyclo[2.2.1]heptan-2-yl)-4-((S)-2-(methoxymethyl)azetidin-1-yl)phenyl)-2-(2-fluoro-6-methoxyphenyl)pyrimidine-4-carboxamide], the Ki was under 100 nM. As to `COc1cccc(F)c1-c1nccc(C(=O)Nc2ccc(-c3ccncc3C#N)c(F)c2N2C[C@@H]3C[C@H]2CN3)n1` [Example 40, N-(2-((1S,4S)-2,5-Diazabicyclo[2.2.1]heptan-2-yl)-4-(3-cyanopyridin-4-yl)-3-fluorophenyl)-2-(2-fluoro-6-methoxyphenyl)pyrimidine-4-carboxamide], the Ki is under 100 nM. On to `COc1cccc(F)c1-c1nccc(C(=O)Nc2ccc(-c3ccncc3C#N)cc2N2C[C@@H](N)C[C@H]2CO)n1` [Example 41, N-(2-((2S,4S)-4-Amino-2-(hydroxymethyl)pyrrolidin-1-yl)-4-(3-cyanopyridin-4-yl)phenyl)-2-(2-fluoro-6-methoxyphenyl)pyrimidine-4-carboxamide], for which the Ki is under 100 nM. Regarding `COc1cnccc1-c1ccc(NC(=O)c2ccnc(-c3c(F)cccc3OC)n2)c(N2C[C@@H](N)C[C@H]2CO)c1` [Example 44, N-(2-((2S,4S)-4-Amino-2-(hydroxymethyl)pyrrolidin-1-yl)-4-(3-methoxypyridin-4-yl)phenyl)-2-(2-fluoro-6-methoxyphenyl)pyrimidine-4-carboxamide], the Ki was under 100 nM. The same measure for `COc1cccc(F)c1-c1nccc(C(=O)Nc2ccc(-c3c(F)cccc3C#N)cc2N2C[C@@H](N)C[C@H]2CO)n1` [Example 45, N-(3-((2S,4S)-4-Amino-2-(hydroxymethyl)pyrrolidin-1-yl)-2'-cyano-6'-fluorobiphenyl-4-yl)-2-(2-fluoro-6-methoxyphenyl)pyrimidine-4-carboxamide]: under 100 nM; for `COc1cccc(F)c1-c1nccc(C(=O)Nc2ccc(C(C)C)cc2N2C[C@@H](N)C[C@H]2CO)n1` [Example 48, N-(2-((2S,4S)-4-Amino-2-(hydroxymethyl)pyrrolidin-1-yl)-4-isopropylphenyl)-2-(2-fluoro-6-methoxyphenyl)pyrimidine-4-carb oxamide]: under 100 nM. Then `COc1cccc(F)c1-c1nccc(C(=O)Nc2ccc(-c3ccncc3C#N)cc2N2C[C@@H](O)C[C@H]2CO)n1` [Example 49, N-(4-(3-Cyanopyridin-4-yl)-2-((2S,4S)-4-hydroxy-2-(hydroxymethyl)pyrrolidin-1-yl)phenyl)-2-(2-fluoro-6-methoxyphenyl)pyrimidine-4-carboxamide], with under 100 nM.

The molecule `COc1cccc(F)c1-c1nccc(C(=O)Nc2ccc(-c3cnccc3C#N)cc2N2C[C@@H](C)NC[C@H]2CO)n1` [Example 50, N-(4-(4-Cyanopyridin-3-yl)-2-((2S,5R)-2-(hydroxymethyl)-5-methylpiperazin-1-yl)phenyl)-2-(2-fluoro-6-methoxyphenyl)pyrimidine-4-carboxamide] showed a Ki of under 100 nM.

Take `COc1cccc(F)c1-c1nccc(C(=O)Nc2ccc(-c3cnccc3C#N)cc2N2C[C@H](C)NC[C@H]2CO)n1` [Example 51, N-(4-(4-Cyanopyridin-3-yl)-2-((2S,5S)-2-(hydroxymethyl)-5-methylpiperazin-1-yl)phenyl)-2-(2-fluoro-6-methoxyphenyl)pyrimidine-4-carboxamide]: the Ki is under 100 nM.

For the molecule `COc1cccc(F)c1-c1nccc(C(=O)Nc2ccc(-c3cnccc3C#N)cc2N2CC3(CC3)NC[C@H]2CO)n1` [Example 52, (S)-N-(4-(4-Cyanopyridin-3-yl)-2-(6-(hydroxymethyl)-4,7-diazaspiro[2.5]octan-7-yl)phenyl)-2-(2-fluoro-6-methoxyphenyl)pyrimidine-4-carboxamide], the Ki is under 100 nM.

On to `COc1cccc(F)c1-c1nccc(C(=O)Nc2ccc(-c3cnccc3C#N)cc2N2C[C@@H](N)C[C@H]2C2(O)CC2)n1` [Example 53, N-(2-((2S,4S)-4-Amino-2-(1-hydroxycyclopropyl)pyrrolidin-1-yl)-4-(4-cyanopyridin-3-yl)phenyl)-2-(2-fluoro-6-methoxyphenyl)pyrimidine-4-carboxamide], for which the Ki was under 100 nM. Turning to `COc1cccc(F)c1-c1nccc(C(=O)Nc2ccc(-c3cnccc3C#N)cc2N2C[C@@H](N)C[C@H]2C(C)(C)O)n1` [Example 54, N-(2-((2S,4S)-4-Amino-2-(2-hydroxypropan-2-yl)pyrrolidin-1-yl)-4-(4-cyanopyridin-3-yl)phenyl)-2-(2-fluoro-6-methoxyphenyl)pyrimidine-4-carboxamide], the Ki is under 100 nM. The same measure for `COc1cccc(F)c1-c1nccc(C(=O)Nc2ccc(-c3cnccc3C#N)cc2N2[C@@H]3CN[C@@H](C3)[C@@H]2CO)n1` [Example 56, N-(4-(4-Cyanopyridin-3-yl)-2-((1S,3R,4S)-3-(hydroxymethyl)-2,5-diazabicyclo [2.2.1]heptan-2-yl)phenyl)-2-(2-fluoro-6-methoxyphenyl)pyrimidine-4-carboxamide]: under 100 nM. The same measure for `COc1cccc(F)c1-c1nccc(C(=O)Nc2ccc(-c3cnccc3C#N)cc2N2C[C@@H]3C[C@@]2(CO)CN3)n1` [Example 57, N-(4-(4-Cyanopyridin-3-yl)-2-((1S,4S)-1-(hydroxymethyl)-2,5-diazabicyclo[2.2.1]heptan-2-yl)phenyl)-2-(2-fluoro-6-methoxyphenyl)pyrimidine-4-carboxamide]: under 100 nM. In turn, `COc1cccc(F)c1-c1nccc(C(=O)Nc2ccc(-c3cnccc3C#N)cc2N2CC[C@H](N)C[C@@H]2C)n1` [Example 58, N-(2-((2S,4S)-4-Amino-2-methylpiperidin-1-yl)-4-(4-cyanopyridin-3-yl)phenyl)-2-(2-fluoro-6-methoxyphenyl)pyrimidine-4-carboxamide] had an inhibitory constant (Ki) of under 100 nM. Consider `COc1cccc(F)c1-c1cccc(C(=O)Nc2ccc(-c3cnccc3C#N)cc2N2C[C@@H](N)C[C@H]2CO)n1` [Example 59, N-(2-((2S,4S)-4-Amino-2-(hydroxymethyl)pyrrolidin-1-yl)-4-(4-cyanopyridin-3-yl)phenyl)-6-(2-fluoro-6-methoxyphenyl)picolinamide], for which the Ki is under 100 nM. Molecule `COc1cccc(F)c1-c1nc(C(=O)Nc2ccc(-c3cnccc3C#N)cc2N2C[C@@H](N)C[C@H]2CO)ccc1C#N` [Example 60, N-(2-((2S,4S)-4-Amino-2-(hydroxymethyl)pyrrolidin-1-yl)-4-(4-cyanopyridin-3-yl)phenyl)-5-cyano-6-(2-fluoro-6-methoxyphenyl)picolinamide] displayed a Ki of under 100 nM. Regarding `COc1ccc(C(=O)Nc2ccc(-c3cnccc3C#N)cc2N2C[C@@H](N)C[C@H]2CO)nc1-c1c(F)cccc1OC` [Example 61, N-(2-((2S,4S)-4-Amino-2-(hydroxymethyl)pyrrolidin-1-yl)-4-(4-cyanopyridin-3-yl)phenyl)-6-(2-fluoro-6-methoxyphenyl)-5-methoxypicolinamide], the Ki lay in the range of 100 to 500 nM. The same measure for `N#Cc1ccncc1-c1ccc(NC(=O)c2ccnc(-c3c(F)cccc3F)n2)c(N2C[C@@H](N)C[C@H]2CO)c1` [Example 62, N-(2-((2S,4S)-4-Amino-2-(hydroxymethyl)pyrrolidin-1-yl)-4-(4-cyanopyridin-3-yl)phenyl)-2-(2,6-difluorophenyl)pyrimidine-4-carboxamide]: under 100 nM; for `Cc1cccc(F)c1-c1nccc(C(=O)Nc2ccc(-c3cnccc3C#N)cc2N2C[C@@H](N)C[C@H]2CO)n1` [Example 63, N-(2-((2S,4S)-4-Amino-2-(hydroxymethyl)pyrrolidin-1-yl)-4-(4-cyanopyridin-3-yl)phenyl)-2-(2-fluoro-6-methylphenyl)pyrimidine-4-carboxamide]: under 100 nM; for `N#Cc1ccncc1-c1ccc(NC(=O)c2ccnc(-c3c(F)cccc3Cl)n2)c(N2C[C@@H](N)C[C@H]2CO)c1` [Example 64, N-(2-((2S,4S)-4-Amino-2-(hydroxymethyl)pyrrolidin-1-yl)-4-(4-cyanopyridin-3-yl)phenyl)-2-(2-chloro-6-fluorophenyl)pyrimidine-4-carboxamide]: under 100 nM. Then `COc1cccc(F)c1-c1nccc(C(=O)Nc2ccc(-c3c(C)nn(C)c3C)nc2N2C[C@@H](N)C[C@H]2CO)n1` [Example 65, N-(2-((2S,4S)-4-Amino-2-(hydroxymethyl)pyrrolidin-1-yl)-6-(1,3,5-trimethyl-1H-pyrazol-4-yl)pyridin-3-yl)-2-(2-fluoro-6-methoxyphenyl)pyrimidine-4-carboxamide], with under 100 nM. Then `N[C@H]1C[C@@H](CO)N(c2ccc(F)cc2NC(=O)c2ccnc(-c3c(F)cccc3F)n2)C1` [Example 66, N-(2-((2S,4S)-4-Amino-2-(hydroxymethyl)pyrrolidin-1-yl)-5-fluorophenyl)-2-(2,6-difluorophenyl)pyrimidine-4-carboxamide], with under 100 nM; and `COc1ccc(C#N)c(F)c1-c1nccc(C(=O)Nc2cc(F)ccc2N2C[C@@H](N)C[C@H]2CO)n1` [Example 67, N-(2-((2S,4S)-4-Amino-2-(hydroxymethyl)pyrrolidin-1-yl)-5-fluorophenyl)-2-(3-cyano-2-fluoro-6-methoxyphenyl)pyrimidine-4-carboxamide], with under 100 nM.
